{
  "source": "patent US20050100594A1",
  "about": "“Pharmaceutical formulation containing muscle relaxant and COX-II inhibitor” (priority 2003, published 2005)",
  "origin": "cited, not measured here",
  "system": "skeletal muscle fibers, neuromuscular junction, monosynaptic spinal reflexes",
  "settings": "animal models",
  "note": "Structures can show the parent of a compound that is named as a salt.",
  "data": [
    {"molecule": "Clc1ccc2nsnc2c1NC1=NCCN1", "note": "[Tizanidine, 5-chloro-4-(2-imidazolin-2-ylamino)-2,1,3-benzothiodiazole hydrochloride]", "values": [
      {"measurement": "effect on monosynaptic spinal reflexes", "result": "no major effect"},
      {"measurement": "effect on skeletal muscle fibers or the neuromuscular junction", "result": "no direct effect"}
    ]}
  ]
}
